≈ marks a conversion by molar mass, not a printed value.
Experiments:
Assay type in all cases: functional
[1] = tested on: Mycobacterium tuberculosis; experiment: Antibacterial activity against drug-resistant Mycobacterium tuberculosis 926 by microbroth dilution method
[2] = tested on: Mycobacterium tuberculosis; experiment: Antibacterial activity against drug-resistant Mycobacterium tuberculosis 164 by microbroth dilution method
[3] = tested on: Mycobacterium tuberculosis; experiment: Ratio of rifampicin MIC to compound MIC for extensively drug-resistant Mycobacterium tuberculosis
[4] = tested on: Mycobacterium tuberculosis; experiment: Ratio of isoniazid MIC to compound MIC for extensively drug-resistant Mycobacterium tuberculosis

NCCC[C@H](N)CC(=O)NCCC[C@H](N)CC(=O)N[C@@H]1[C@H](O)[C@@H](O)[C@@H](COC(N)=O)O[C@H]1/N=C1\N[C@@H]2[C@H](O)CNC(=O)[C@H]2N1
MIC [1]: 8 µg/mL (≈ 12.7 µM)
MIC [2]: 8 µg/mL (≈ 12.7 µM)

NCCC[C@H](N)CC(=O)NCCC[C@H](N)CC(=O)N[C@@H]1[C@H](O)[C@@H](OC(N)=O)[C@@H](CO)O[C@H]1NC1=N[C@@H]2C(=O)NC[C@@H](O)[C@H]2N1 [STREPTOTHRICIN E]
Ratio [3]: 8
MIC [1]: 0.25 µg/mL (≈ 0.396 µM)
Ratio [4]: 8
MIC [2]: 0.5 µg/mL (≈ 0.793 µM)

NNC(=O)c1ccncc1 [ISONIAZID]
MIC [1]: 4 µg/mL (≈ 29.2 µM)
MIC [2]: 4 µg/mL (≈ 29.2 µM)

CO[C@H]1/C=C/O[C@@]2(C)Oc3c(C)c(O)c4c(O)c(c(/C=N/N5CCN(C)CC5)c(O)c4c3C2=O)NC(=O)/C(C)=C\C=C\[C@H](C)[C@H](O)[C@@H](C)[C@@H](O)[C@@H](C)[C@H](OC(C)=O)[C@@H]1C [RIFAMPIN]
MIC [1]: 16 µg/mL (≈ 19.4 µM)
MIC [2]: 32 µg/mL (≈ 38.9 µM)
